Test results taken from ChEMBL document CHEMBL3627608, “Crystal structures of human RIP2 kinase catalytic domain complexed with ATP-competitive inhibitors: Foundations for understanding inhibitor selectivity” (Bioorg Med Chem, 2015).

Experiments:
[1] = target: T1, Serine/threonine-protein kinase Nek1 (Homo sapiens) (UniProt Q96PY6); test: Inhibition of NEK1 (unknown origin) at 10 uM after 120 mins P33 radiolabeled kinase activity assay
T1 sequence (whole entry): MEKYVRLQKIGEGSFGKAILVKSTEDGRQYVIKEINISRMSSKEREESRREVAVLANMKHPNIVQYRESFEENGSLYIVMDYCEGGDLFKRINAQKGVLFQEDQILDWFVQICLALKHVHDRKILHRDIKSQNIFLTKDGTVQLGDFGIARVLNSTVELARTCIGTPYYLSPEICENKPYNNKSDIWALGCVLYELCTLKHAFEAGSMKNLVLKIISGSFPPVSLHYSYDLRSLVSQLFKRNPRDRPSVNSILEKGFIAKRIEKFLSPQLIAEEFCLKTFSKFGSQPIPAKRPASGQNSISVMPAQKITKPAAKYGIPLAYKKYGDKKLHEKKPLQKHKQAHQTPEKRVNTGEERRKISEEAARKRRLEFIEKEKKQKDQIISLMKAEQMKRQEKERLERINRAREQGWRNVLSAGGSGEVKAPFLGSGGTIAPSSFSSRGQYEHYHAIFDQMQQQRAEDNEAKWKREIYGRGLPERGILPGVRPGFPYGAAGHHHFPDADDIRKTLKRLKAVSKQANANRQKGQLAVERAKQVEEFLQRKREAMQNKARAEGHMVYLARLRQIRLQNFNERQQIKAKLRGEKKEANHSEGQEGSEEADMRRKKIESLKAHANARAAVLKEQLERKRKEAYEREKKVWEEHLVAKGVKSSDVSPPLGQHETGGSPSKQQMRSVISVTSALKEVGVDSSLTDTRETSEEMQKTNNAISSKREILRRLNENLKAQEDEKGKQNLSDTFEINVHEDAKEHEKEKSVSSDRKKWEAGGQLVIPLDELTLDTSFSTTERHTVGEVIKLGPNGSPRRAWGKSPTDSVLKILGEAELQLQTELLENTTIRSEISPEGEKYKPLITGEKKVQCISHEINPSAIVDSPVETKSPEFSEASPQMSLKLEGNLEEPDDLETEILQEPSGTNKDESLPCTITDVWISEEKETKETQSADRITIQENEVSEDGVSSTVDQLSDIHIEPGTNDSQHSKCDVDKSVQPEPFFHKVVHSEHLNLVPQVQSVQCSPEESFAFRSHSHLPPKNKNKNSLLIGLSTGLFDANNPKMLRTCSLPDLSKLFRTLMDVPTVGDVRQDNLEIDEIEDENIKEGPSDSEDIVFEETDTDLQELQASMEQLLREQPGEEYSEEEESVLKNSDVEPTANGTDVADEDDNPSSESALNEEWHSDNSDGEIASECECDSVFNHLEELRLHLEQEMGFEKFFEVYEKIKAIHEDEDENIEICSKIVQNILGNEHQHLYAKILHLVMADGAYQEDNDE

[2] = target: T2, Serine/threonine-protein kinase ULK1 (Homo sapiens) (UniProt O75385); test: Inhibition of ULK1 (unknown origin) at 10 uM after 120 mins P33 radiolabeled kinase activity assay
T2 sequence (whole entry): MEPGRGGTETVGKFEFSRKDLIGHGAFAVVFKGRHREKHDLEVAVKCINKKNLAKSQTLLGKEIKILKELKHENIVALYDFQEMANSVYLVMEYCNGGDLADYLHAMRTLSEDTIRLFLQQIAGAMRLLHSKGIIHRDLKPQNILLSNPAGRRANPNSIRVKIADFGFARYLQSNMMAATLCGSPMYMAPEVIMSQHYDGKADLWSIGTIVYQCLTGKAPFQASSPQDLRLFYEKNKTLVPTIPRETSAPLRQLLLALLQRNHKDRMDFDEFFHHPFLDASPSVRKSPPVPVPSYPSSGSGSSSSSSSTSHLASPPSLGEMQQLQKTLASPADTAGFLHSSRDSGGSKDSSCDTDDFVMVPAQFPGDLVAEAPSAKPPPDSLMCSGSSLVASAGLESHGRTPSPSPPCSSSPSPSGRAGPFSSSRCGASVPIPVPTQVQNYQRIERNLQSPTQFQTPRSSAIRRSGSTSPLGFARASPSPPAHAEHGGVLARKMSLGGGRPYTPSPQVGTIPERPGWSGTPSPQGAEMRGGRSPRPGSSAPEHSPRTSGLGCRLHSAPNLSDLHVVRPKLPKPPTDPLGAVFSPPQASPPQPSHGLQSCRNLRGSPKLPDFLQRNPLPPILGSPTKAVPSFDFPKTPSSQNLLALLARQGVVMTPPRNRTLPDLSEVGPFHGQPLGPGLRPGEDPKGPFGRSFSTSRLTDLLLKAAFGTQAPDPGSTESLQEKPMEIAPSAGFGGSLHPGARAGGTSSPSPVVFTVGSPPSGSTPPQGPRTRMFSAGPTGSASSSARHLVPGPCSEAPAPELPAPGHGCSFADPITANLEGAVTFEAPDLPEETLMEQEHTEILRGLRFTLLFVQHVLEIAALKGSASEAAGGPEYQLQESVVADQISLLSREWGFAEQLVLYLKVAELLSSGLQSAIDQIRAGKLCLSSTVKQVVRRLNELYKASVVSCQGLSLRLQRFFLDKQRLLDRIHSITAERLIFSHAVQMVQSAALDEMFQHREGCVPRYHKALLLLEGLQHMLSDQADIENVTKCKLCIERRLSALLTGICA

Row | Structure (SMILES) | inhibition [1] [%] | inhibition [2] [%]
1 | COCCNC(=O)c1ccc2c(c1)nc(-c1cnc(-c3ccc(Cl)cc3)[nH]1)n2CCOC | 2.5 | 3.62
2 | CS(=O)(=O)c1cccc(Nc2nccc(-c3sc(N4CCOCC4)nc3-c3cccc(NS(=O)(=O)c4c(F)cccc4F)c3)n2)c1 | 15.4 | 52.4
3 | CC(C)(C)c1cc(NC(=O)Nc2ccc(Oc3ccncc3)cc2)no1 | 12.5 | 5.71
